The subject of one data set is HIV-1NL4-3 pseudovirus. Kind of data set: Ex vivo inhibitory activity of sera from monkeys administrated LP-80 (single-cycle infection assay). In kind it is in vivo, Chinese rhesus macaques. Conditions: monkey sera after SC 3 mg/kg. How it is done:
A single-cycle infection assay was performed to determine the inhibitory activity of the monkey sera on HIV-1NL4-3 pseudovirus. The 50% effective concentration was defined as the fold serum dilution that inhibited 50% of virus infection.

The next data set can be described thus: in vivo. Conditions: Sprague-Dawley, rat, 6 mg/kg.

SMILES strings stand for the structures. Peptide text beside a SMILES is read from it. * marks the point of attachment. Stearoyl = CCCCCCCCCCCCCCCCCC(=O)*

As for `CCCCCCCCCCCCCCCCCC(=O)NCCCC[C@H](NC(=O)[C@H](CCC(=O)O)NC(=O)[C@H](CC(C)C)NC(=O)[C@H](CCCCN)NC(=O)[C@H](CCCCN)NC(=O)[C@H](CC(C)C)NC(=O)[C@H](CCC(=O)O)NC(=O)[C@H](CCC(=O)O)NC(=O)[C@H](CCC(=O)O)NC(=O)[C@H](CC(N)=O)NC(=O)[C@H](CCCCN)NC(=O)[C@H](CCCCN)NC(=O)[C@H](CCC(N)=O)NC(=O)[C@H](CCC(N)=O)NC(=O)[C@H](CCC(=O)O)NC(=O)[C@H](CCC(=O)O)NC(=O)[C@H](C)NC(=O)[C@H](CCCCN)NC(=O)[C@H](CCCCN)NC(=O)[C@H](CC(C)C)NC(=O)[C@H](CC(C)C)NC(=O)[C@H](CCC(=O)O)NC(=O)[C@H](CCC(=O)O)NC(=O)[C@@H](NC(=O)[C@H](CCCCN)NC(=O)[C@H](CCC(N)=O)NC(=O)[C@H](CCC(=O)O)NC(=O)[C@H](Cc1c[nH]c2ccccc12)NC(C)=O)[C@@H](C)CC)C(N)=O` [LP-80] (Ac-WEQKIEELLKKAEEQQKKNEEELKKLEK(Stearoyl)-NH2), the “Time of peak serum inhibitory activity after injection” value in the data set on HIV-1NL4-3 pseudovirus fell in the range of 6 to 8 h. The compound further had a level at 72 h in the data set “in vivo” of around 7 ng/mL. Besides, in the data set “in vivo” (iv), the AUC(0-inf) (in general, the area under the concentration-time curve extrapolated to infinity) worked out at 288 ± 49.4 µg·h/mL; the AUC(0-t) – broadly, exposure summed from dosing to a finite time, without extrapolation to infinity – was found to be 288 ± 49.4 µg·h/mL; the peak level (Cmax) was 53300 ± 10600 ng/mL; the MRT (as a rule, a mean duration of stay, worked out from the concentration-time curve) was found to be 7.53 ± 0.85 h. In addition, in the data set “in vivo” (iv), the Tmax (commonly the time from dosing to the highest level) is 0.08 h and the Vd (usually the apparent volume that relates the amount in the body to the concentration in plasma or blood) was 0.183 ± 0.0216 L/kg. Moreover, in the data set “in vivo” (sc), the area under the curve AUC(0-inf) was found to be 114 ± 33.6 µg·h/mL; the exposure AUC(0-t) was found to be 114 ± 33.6 µg·h/mL; the CL/F – broadly, the apparent clearance, not corrected for the fraction that reaches the circulation – was 0.958 mL/min/kg; the Cmax (usually the highest concentration seen after dosing) turned out to be 7650 ± 1580 ng/mL. In the data set “in vivo” (sc), the mean residence time MRT stood at 9.73 ± 1.11 h and the time of peak concentration (Tmax) amounted to 4 ± 2.19 h.

Source of the values: publication PMC6375636, “Monotherapy with a low-dose lipopeptide HIV fusion inhibitor maintains long-term viral suppression in rhesus macaques” (PLoS Pathogens, 2019).
